Paper PMC11277489, “Novel Piperazine Derivatives of Vindoline as Anticancer Agents” (International Journal of Molecular Sciences, 2024)

Key:
BT-549 = assay: NCI60 one-dose screen (10 μM), Breast Cancer; format: cell-based; details: Homo sapiens; 10 μM; BT-549, Breast Cancer; read-out: Growth percent rate
MDA-MB-468 = assay: NCI60 one-dose screen (10 μM), Breast Cancer; format: cell-based; details: Homo sapiens; 10 μM; MDA-MB-468, Breast Cancer; read-out: Growth percent rate
SR = assay: NCI60 one-dose screen (10 μM), Leukemia; format: cell-based; details: Homo sapiens, 10 μM, Leukemia, read-out: Growth percent rate
NCI-H226 = assay: NCI60 one-dose screen (10 μM), Non-small Cell Lung Cancer; format: cell-based; details: Homo sapiens; 10 μM; NCI-H226, Non-small Cell Lung Cancer; read-out: Growth percent rate
EKVX = assay: NCI60 five-dose screen, Non-small Cell Lung Cancer; format: cell-based; details: Homo sapiens, Non-small Cell Lung Cancer, five-dose screen, read-out: GI50
UACC-62 [1] = assay: NCI60 five-dose screen, Melanoma; format: cell-based; details: Homo sapiens; UACC-62, Melanoma; five-dose screen; read-out: GI50
K-562 = assay: NCI60 five-dose screen, Leukemia; format: cell-based; details: Homo sapiens, K562; K-562, Leukemia; five-dose screen; read-out: GI50
SK-OV-3 = assay: NCI60 one-dose screen (10 μM), Ovarian Cancer; format: cell-based; details: Homo sapiens; 10 μM; SK-OV-3, Ovarian Cancer; read-out: Growth percent rate
NCI/ADR-RES [2] = assay: NCI60 five-dose screen, Ovarian Cancer; format: cell-based; details: Homo sapiens, Ovarian Cancer, five-dose screen, read-out: GI50
HOP-92 [3] = assay: NCI60 five-dose screen, Non-small Cell Lung Cancer; format: cell-based; details: Homo sapiens; HOP-92, Non-small Cell Lung Cancer; five-dose screen; read-out: GI50
ACHN = assay: NCI60 five-dose screen, Renal Cancer; format: cell-based; details: Homo sapiens, Renal Cancer, five-dose screen, read-out: GI50
HOP-92 [4] = assay: NCI60 one-dose screen (10 μM), Non-small Cell Lung Cancer; format: cell-based; details: Homo sapiens; 10 μM; HOP-92, Non-small Cell Lung Cancer; read-out: Growth percent rate
IGROV1 = assay: NCI60 five-dose screen, Ovarian Cancer; format: cell-based; details: Homo sapiens, IGROV-1; IGROV1, Ovarian Cancer; five-dose screen; read-out: GI50
MDA-MB231ATCC = assay: NCI60 five-dose screen, Breast Cancer; format: cell-based; details: Homo sapiens, MDA-MB-231; MDA-MB231ATCC, Breast Cancer; five-dose screen; read-out: GI50
NCI-H460 [5] = assay: NCI60 five-dose screen, Non-small Cell Lung Cancer; format: cell-based; details: Homo sapiens; NCI-H460, Non-small Cell Lung Cancer; five-dose screen; read-out: GI50
OVCAR-5 [6] = assay: NCI60 one-dose screen (10 μM), Ovarian Cancer; format: cell-based; details: Homo sapiens; 10 μM; OVCAR-5, Ovarian Cancer; read-out: Growth percent rate
HOP-62 = assay: NCI60 five-dose screen, Non-small Cell Lung Cancer; format: cell-based; details: Homo sapiens; HOP-62, Non-small Cell Lung Cancer; five-dose screen; read-out: GI50
SNB-75 = assay: NCI60 one-dose screen (10 μM), CNS Cancer; format: cell-based, human; details: Homo sapiens; 10 μM; SNB-75, CNS Cancer; read-out: Growth percent rate
SF-539 = assay: NCI60 five-dose screen, CNS Cancer; format: cell-based; details: Homo sapiens; SF-539, CNS Cancer; five-dose screen; read-out: GI50
TK-10 = assay: NCI60 five-dose screen, Renal Cancer; format: cell-based; details: Homo sapiens; TK-10, Renal Cancer; five-dose screen; read-out: GI50
LOX IMVI = assay: NCI60 five-dose screen, Melanoma; format: cell-based; details: Homo sapiens, Melanoma, five-dose screen, read-out: GI50
U251 = assay: NCI60 one-dose screen (10 μM), CNS Cancer; format: cell-based; details: Homo sapiens, U-251; 10 μM; U251, CNS Cancer; read-out: Growth percent rate
OVCAR-5 [7] = assay: NCI60 five-dose screen, Ovarian Cancer; format: cell-based; details: Homo sapiens; OVCAR-5, Ovarian Cancer; five-dose screen; read-out: GI50
UACC-62 [8] = assay: NCI60 one-dose screen (10 μM), Melanoma; format: cell-based; details: Homo sapiens; 10 μM; UACC-62, Melanoma; read-out: Growth percent rate
HT29 = assay: NCI60 five-dose screen, Colon Cancer; format: cell-based; details: Homo sapiens, HT-29; HT29, Colon Cancer; five-dose screen; read-out: GI50
MDA-MB-435 = assay: NCI60 five-dose screen, Melanoma; format: cell-based; details: Homo sapiens; MDA-MB-435, Melanoma; five-dose screen; read-out: GI50
HL-60(TB) = assay: NCI60 five-dose screen, Leukemia; format: cell-based; details: Homo sapiens; HL-60(TB), Leukemia; five-dose screen; read-out: GI50
SNB-19 = assay: NCI60 five-dose screen, CNS Cancer; format: cell-based; details: Homo sapiens; SNB-19, CNS Cancer; five-dose screen; read-out: GI50
DU-145 [9] = assay: NCI60 one-dose screen (10 μM), Prostate Cancer; format: cell-based; details: Homo sapiens; 10 μM; DU-145, Prostate Cancer; read-out: Growth percent rate
A498 = assay: NCI60 one-dose screen (10 μM), Renal Cancer; format: cell-based; details: Homo sapiens; 10 μM; A498, Renal Cancer; read-out: Growth percent rate
[10] = test system: 60 human tumor cell lines (NCI60); assay: NCI60 one-dose screen (10 μM), whole panel; format: cell-based; details: 10 μM; mean over 60 human cancer cell lines; read-out: Growth percent rate, Mean
T-47D [11] = assay: NCI60 five-dose screen, Breast Cancer; format: cell-based; details: Homo sapiens, T47D; T-47D, Breast Cancer; five-dose screen; read-out: GI50
SK-MEL-5 = assay: NCI60 five-dose screen, Melanoma; format: cell-based; details: Homo sapiens; SK-MEL-5, Melanoma; five-dose screen; read-out: GI50
UO-31 = assay: NCI60 one-dose screen (10 μM), Renal Cancer; format: cell-based; details: Homo sapiens; 10 μM; UO-31, Renal Cancer; read-out: Growth percent rate
PC-3 = assay: NCI60 one-dose screen (10 μM), Prostate Cancer; format: cell-based; details: Homo sapiens; 10 μM; PC-3, Prostate Cancer; read-out: Growth percent rate
SF-268 = assay: NCI60 five-dose screen, CNS Cancer; format: cell-based; details: Homo sapiens; SF-268, CNS Cancer; five-dose screen; read-out: GI50
NCI/ADR-RES [12] = assay: NCI60 one-dose screen (10 μM), Ovarian Cancer; format: cell-based; details: Homo sapiens, 10 μM, Ovarian Cancer, read-out: Growth percent rate
HCT-116 = assay: NCI60 five-dose screen, Colon Cancer; format: cell-based; details: Homo sapiens; HCT-116, Colon Cancer; five-dose screen; read-out: GI50
NCI-H460 [13] = assay: NCI60 one-dose screen (10 μM), Non-small Cell Lung Cancer; format: cell-based; details: Homo sapiens; 10 μM; NCI-H460, Non-small Cell Lung Cancer; read-out: Growth percent rate
OVCAR-4 = assay: NCI60 five-dose screen, Ovarian Cancer; format: cell-based; details: Homo sapiens; OVCAR-4, Ovarian Cancer; five-dose screen; read-out: GI50
T-47D [14] = assay: NCI60 one-dose screen (10 μM), Breast Cancer; format: cell-based; details: Homo sapiens, T47D; 10 μM; T-47D, Breast Cancer; read-out: Growth percent rate
CAKI-1 = assay: NCI60 five-dose screen, Renal Cancer; format: cell-based; details: Homo sapiens; CAKI-1, Renal Cancer; five-dose screen; read-out: GI50
DU-145 [15] = assay: NCI60 five-dose screen, Prostate Cancer; format: cell-based; details: Homo sapiens; DU-145, Prostate Cancer; five-dose screen; read-out: GI50
MDA-MB-231/ATCC = assay: NCI60 one-dose screen (10 μM), Breast Cancer; format: cell-based, human; details: Homo sapiens; 10 μM; MDA-MB-231/ATCC, Breast Cancer; read-out: Growth percent rate
HS 578T = assay: NCI60 five-dose screen, Breast Cancer; format: cell-based; details: Homo sapiens; HS 578T, Breast Cancer; five-dose screen; read-out: GI50

For CC[C@]12C=CCN3CC[C@@]4(c5ccc(OC)cc5N(C)[C@H]4[C@@](O)(C(=O)OC)[C@@H]1OC(=O)CCCN1CCN(c4ccc(C(F)(F)F)cc4)CC1)[C@@H]32 [Compound 22], the activity at 10 µM (BT-549) was -69.1%, the activity at 10 µM (MDA-MB-468) was -83.4% and the activity at 10 µM (SR) was 14.2%. It also gave an activity at 10 µM (NCI-H226) of -50.7%, a GI50 (EKVX) of 3.09 µM and a GI50 (UACC-62 [1]) of 3.31 µM. For the same compound, the GI50 (K-562) was 1410 nM, the activity at 10 µM (SK-OV-3) was 23.6% and the GI50 (NCI/ADR-RES [2]) was 2290 nM. It also gave a GI50 (HOP-92 [3]) of 1950 nM, a GI50 (ACHN) of 3.24 µM and an activity at 10 µM (HOP-92 [4]) of -30.9%. It also gave a GI50 (IGROV1) of 2000 nM, a GI50 (MDA-MB231ATCC) of 2820 nM and a GI50 (NCI-H460 [5]) of 1860 nM. The activity at 10 µM (OVCAR-5 [6]) was -31.1%, the GI50 (HOP-62) was 3.02 µM and the activity at 10 µM (SNB-75) was 2.76%. It also gave a GI50 (SF-539) of 1780 nM, a GI50 (TK-10) of 2880 nM and a GI50 (LOX IMVI) of 1700 nM. For the same compound, the activity at 10 µM (U251) was -88.4%, the GI50 (OVCAR-5 [7]) was 4.07 µM and the activity at 10 µM (UACC-62 [8]) was -90.9%. It also gave a GI50 (HT29) of 1740 nM, a GI50 (MDA-MB-435) of 1700 nM and a GI50 (HL-60(TB)) of 1660 nM. For the same compound, the GI50 (SNB-19) was 3.55 µM, the activity at 10 µM (DU-145 [9]) was -38.8% and the activity at 10 µM (A498) was -15.1%. It also gave an activity at 10 µM [10] of -44.5%, a GI50 (T-47D [11]) of 3.02 µM and a GI50 (SK-MEL-5) of 1700 nM. The activity at 10 µM (UO-31) was 2.06%, the activity at 10 µM (PC-3) was -25.4% and the GI50 (SF-268) was 3.63 µM. For the same compound, the activity at 10 µM (NCI/ADR-RES [12]) was -10.9%, the GI50 (HCT-116) was 1910 nM and the activity at 10 µM (NCI-H460 [13]) was -36.9%. It also gave a GI50 (OVCAR-4) of 3.8 µM, an activity at 10 µM (T-47D [14]) of -11.4% and a GI50 (CAKI-1) of 2240 nM. For the same compound, the GI50 (DU-145 [15]) was 2880 nM, the activity at 10 µM (MDA-MB-231/ATCC) was -67.4% and the GI50 (HS 578T) was 2820 nM.
